From PubChem BioAssay AID1963427 (Molecular Pharmacology Branch, DTP, NCI, 2024)
pIC50: −log10 of the molar value. Several values for one entry are separate records, joined by “and”; a condition that tells them apart may be missing. Equal values may be shown once.

Tested on: 317291-083-R-J1-PDC complex spheroid growth
Assay: Anticancer human tumor 317291-083-R-J1-PDC patient-derived soft tissue sarcoma cell line growth inhibition [Asc]
Details: for viability, T/C: stronger effect = lower value
How it was run: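 Spheroid model: tumor line + HUVEC + hMSC. Single agents and combinations; top conc. at/near clinical Cmax (10 microM if undetermined), half-log dilutions. DMSO stocks at 800-fold test concentration.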

[1] = curve of first compound, second compound 0.0316 µM
[2] = curve of first compound, second compound 0.1 µM
[3] = curve of first compound, second compound 0.316 µM
[4] = curve of first compound, second compound 1 µM
[5] = second compound 0.0316 µM, first compound 0.00316 µM
[6] = second compound 0.0316 µM, first compound 0.01 µM
[7] = second compound 0.0316 µM, first compound 0.0316 µM
[8] = second compound 0.0316 µM, first compound 0.1 µM
[9] = second compound 0.1 µM, first compound 0.00316 µM
[10] = second compound 0.1 µM, first compound 0.01 µM
[11] = second compound 0.1 µM, first compound 0.0316 µM
[12] = second compound 0.1 µM, first compound 0.1 µM
[13] = second compound 0.316 µM, first compound 0.00316 µM
[14] = second compound 0.316 µM, first compound 0.01 µM
[15] = second compound 0.316 µM, first compound 0.0316 µM
[16] = second compound 0.316 µM, first compound 0.1 µM
[17] = second compound 1 µM, first compound 0.00316 µM
[18] = second compound 1 µM, first compound 0.01 µM
[19] = second compound 1 µM, first compound 0.0316 µM
[20] = second compound 1 µM, first compound 0.1 µM
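Also: compound exposure lasted seven days after spheroids formed for three days.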
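For viability, T/C in this document: 100% = DMSO vehicle control wells.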

Work on `NC1CCC(NC2CC2c2ccccc2)CC1` (stereo unspecified) + CNC(C)C(=O)NC1CN(S(=O)(=O)c2cccc(S(=O)(=O)N3CCC4CCC(C(=O)NC(c5ccccc5)c5ccccc5)N4C(=O)C(NC(=O)C(C)NC)C3)c2)CCC2CCC(C(=O)NC(c3ccccc3)c3ccccc3)N2C1=O yielded a pIC50 (curve of first compound, second compound 0.00316 µM) of under 7.00, a pIC50 (curve of first compound, second compound 0.01 µM) of under 7.00 and a pIC50 [1] of under 7.00. For the same compound, the pIC50 [2] was under 7.00, the pIC50 [3] was over 9.50 and the pIC50 [4] was over 9.50. For the same compound, the viability, T/C (second compound 0.00316 µM, first compound 0.000316 µM) was 83.2%, the viability, T/C (second compound 0.00316 µM, first compound 0.001 µM) was 88.8% and the viability, T/C (second compound 0.00316 µM, first compound 0.00316 µM) was 84.5%. It also gave a viability, T/C (second compound 0.00316 µM, first compound 0.01 µM) of 96%, a viability, T/C (second compound 0.00316 µM, first compound 0.0316 µM) of 80.5% and a viability, T/C (second compound 0.00316 µM, first compound 0.1 µM) of 74.5%. The viability, T/C (second compound 0.01 µM, first compound 0.000316 µM) was 93%, the viability, T/C (second compound 0.01 µM, first compound 0.001 µM) was 80.6% and the viability, T/C (second compound 0.01 µM, first compound 0.00316 µM) was 86.9%. The viability, T/C (second compound 0.01 µM, first compound 0.01 µM) was 93.7%, the viability, T/C (second compound 0.01 µM, first compound 0.0316 µM) was 82.3% and the viability, T/C (second compound 0.01 µM, first compound 0.1 µM) was 76.7%. The viability, T/C (second compound 0.0316 µM, first compound 0.000316 µM) was 102%, the viability, T/C (second compound 0.0316 µM, first compound 0.001 µM) was 73.7% and the viability, T/C [5] was 77%. The viability, T/C [6] was 70.1%, the viability, T/C [7] was 89.5% and the viability, T/C [8] was 57.4%. The viability, T/C (second compound 0.1 µM, first compound 0.000316 µM) was 67.5%, the viability, T/C (second compound 0.1 µM, first compound 0.001 µM) was 52% and the viability, T/C [9] was 69.1%. For the same compound, the viability, T/C [10] was 49%, the viability, T/C [11] was 69.3% and the viability, T/C [12] was 64.7%. The viability, T/C (second compound 0.316 µM, first compound 0.000316 µM) was 43.2%, the viability, T/C (second compound 0.316 µM, first compound 0.001 µM) was 56.5% and the viability, T/C [13] was 48%. It also gave a viability, T/C [14] of 54%, a viability, T/C [15] of 61.9% and a viability, T/C [16] of 44%. For the same compound, the viability, T/C (second compound 1 µM, first compound 0.000316 µM) was 37.5%, the viability, T/C (second compound 1 µM, first compound 0.001 µM) was 39.7% and the viability, T/C [17] was 34.5%. It also gave a viability, T/C [18] of 36.8%, a viability, T/C [19] of 46.1% and a viability, T/C [20] of 36.8%.
In the case of `Cn1ncnc1[C@H]1c2n[nH]c(=O)c3cc(F)cc(c23)N[C@@H]1c1ccc(F)cc1`, the viability, T/C (compound 0.000316 µM) was 99% and 111% and 93.9%, the viability, T/C (compound 0.001 µM) was 81.6% and 81.9% and 107% and the viability, T/C (compound 0.00316 µM) was 80.5% and 107% and 99%. The viability, T/C (compound 0.01 µM) was 89.2% and 87.3% and 89%, the viability, T/C (compound 0.0316 µM) was 68.7% and 96.5% and 83% and the viability, T/C (compound 0.1 µM) was 70.7% and 81% and 56.7%. The pIC50 (curve of compound) was under 7.00.
`CNC(C)C(=O)NC1CN(S(=O)(=O)c2cccc(S(=O)(=O)N3CCC4CCC(C(=O)NC(c5ccccc5)c5ccccc5)N4C(=O)C(NC(=O)C(C)NC)C3)c2)CCC2CCC(C(=O)NC(c3ccccc3)c3ccccc3)N2C1=O` (stereo unspecified) + Cc1c(S(C)(=O)=O)c(-c2cc(F)cc(N3CCN(c4ccc(NS(=O)(=O)c5ccc(NC(CCN6CCC(C(=O)OCCCP(=O)(O)O)CC6)CSc6ccccc6)c(S(=O)(=O)C(F)(F)F)c5)cc4)CC3)c2)c(-c2ccc(Cl)cc2)n1C(C)C gave a pIC50 [1] of 6.71, a pIC50 [2] of 6.86 and a pIC50 [3] of 6.75. The pIC50 [4] was 7.21, the pIC50 (curve of first compound, second compound 3.16 µM) was 7.08 and the pIC50 (curve of first compound, second compound 10 µM) was 6.83. The viability, T/C [5] was 121%, the viability, T/C [6] was 65.5% and the viability, T/C [7] was 82.7%. It also gave a viability, T/C [8] of 55.4%, a viability, T/C (second compound 0.0316 µM, first compound 0.316 µM) of 53.3% and a viability, T/C (second compound 0.0316 µM, first compound 1 µM) of 32.9%. For the same compound, the viability, T/C [9] was 88.3%, the viability, T/C [10] was 80.2% and the viability, T/C [11] was 60.4%. The viability, T/C [12] was 62.2%, the viability, T/C (second compound 0.1 µM, first compound 0.316 µM) was 35.1% and the viability, T/C (second compound 0.1 µM, first compound 1 µM) was 25.1%. For the same compound, the viability, T/C [13] was 82.7%, the viability, T/C [14] was 67.4% and the viability, T/C [15] was 74.5%. The viability, T/C [16] was 60.5%, the viability, T/C (second compound 0.316 µM, first compound 0.316 µM) was 38.8% and the viability, T/C (second compound 0.316 µM, first compound 1 µM) was 23.8%. For the same compound, the viability, T/C [17] was 70.7%, the viability, T/C [18] was 61.4% and the viability, T/C [19] was 55%. For the same compound, the viability, T/C [20] was 44.5%, the viability, T/C (second compound 1 µM, first compound 0.316 µM) was 41.3% and the viability, T/C (second compound 1 µM, first compound 1 µM) was 25.3%. For the same compound, the viability, T/C (second compound 3.16 µM, first compound 0.00316 µM) was 81%, the viability, T/C (second compound 3.16 µM, first compound 0.01 µM) was 53.1% and the viability, T/C (second compound 3.16 µM, first compound 0.0316 µM) was 65.1%. The viability, T/C (second compound 3.16 µM, first compound 0.1 µM) was 50.9%, the viability, T/C (second compound 3.16 µM, first compound 0.316 µM) was 36.6% and the viability, T/C (second compound 3.16 µM, first compound 1 µM) was 22.1%. It also gave a viability, T/C (second compound 10 µM, first compound 0.00316 µM) of 77.5%, a viability, T/C (second compound 10 µM, first compound 0.01 µM) of 78.6% and a viability, T/C (second compound 10 µM, first compound 0.0316 µM) of 67.1%. It also gave a viability, T/C (second compound 10 µM, first compound 0.1 µM) of 60%, a viability, T/C (second compound 10 µM, first compound 0.316 µM) of 34.9% and a viability, T/C (second compound 10 µM, first compound 1 µM) of 24.8%.
